# Measured values reported in PMC8225959, “Clickable Radiocomplexes With Trivalent Radiometals for Cancer Theranostics: In vitro and in vivo Studies” (Frontiers in Medicine, 2021).
# Experiment: Biodistribution of [111In]In-radiocomplexes in healthy mice
# Assay type: in vivo
# Protocol: We performed a biodistribution study of the four [^111In]In-radiocomplexes in healthy mice to determine the clearance rate from systemic blood circulation and the tissue/organ distribution over time. […] The urinary tract was identified as the main excretory pathway since the highest % I.D./g values were found in the kidneys for all the radiocomplexes, associated to rapid radioactivity excretion both at 15 min and 1 h p.i. […] page 9: from whole animal body. Blood samples were taken by cardiac puncture at sacrifice. […] The animals were kept under […] volume of approximate 390 ± 190 mm3. […] […] carried out on groups of 8 mice (n = 4). […] The animals were weighed and dissected.
compound,measurement,setting,value
O=C([O-])CN1CCN(CC(=O)[O-])CCN(C(CCC(=O)NCCOCCOCCOCCOCCOCCOCCOCCOCCOCCOCCOCCNC(=O)CCCC(=O)NCc2ccc(-c3nncnn3)cc2)C(=O)[O-])CCN(CC(=O)[O-])CC1.[111In+3] (stereo not drawn) [[111In]In-DOTAGA-PEG-Tz],Biodistribution: Blood,15 min p.i.,3.7 ± 0.6 % I.D./g
same,Biodistribution: Bone,15 min p.i.,0.8 ± 0.2 % I.D./g
same,Biodistribution: Heart,15 min p.i.,1.2 ± 0.6 % I.D./g
same,Biodistribution: Intestine,15 min p.i.,0.31 ± 0.05 % I.D./g
same,Biodistribution: Kidney,15 min p.i.,4.8 ± 0.7 % I.D./g
same,Biodistribution: Liver,15 min p.i.,0.8 ± 0.1 % I.D./g
same,Biodistribution: Lung,15 min p.i.,1.4 ± 0.2 % I.D./g
same,Biodistribution: Muscle,15 min p.i.,0.86 ± 0.07 % I.D./g
same,Biodistribution: Pancreas,15 min p.i.,0.53 ± 0.05 % I.D./g
same,Biodistribution: Spleen,15 min p.i.,0.6 ± 0.2 % I.D./g
same,Biodistribution: Stomach,15 min p.i.,1.0 ± 0.5 % I.D./g
same,Excretion,15 min p.i.,62.7 ± 2.6 % I.D.
same,Biodistribution: Blood,1 h p.i.,0.7 ± 0.4 % I.D./g
same,Biodistribution: Bone,1 h p.i.,0.17 ± 0.09 % I.D./g
same,Biodistribution: Heart,1 h p.i.,0.13 ± 0.08 % I.D./g
same,Biodistribution: Intestine,1 h p.i.,0.4 ± 0.2 % I.D./g
same,Biodistribution: Kidney,1 h p.i.,2.2 ± 0.6 % I.D./g
same,Biodistribution: Liver,1 h p.i.,0.3 ± 0.2 % I.D./g
same,Biodistribution: Lung,1 h p.i.,0.3 ± 0.2 % I.D./g
same,Biodistribution: Muscle,1 h p.i.,0.2 ± 0.1 % I.D./g
same,Biodistribution: Pancreas,1 h p.i.,0.12 ± 0.07 % I.D./g
same,Biodistribution: Spleen,1 h p.i.,0.11 ± 0.05 % I.D./g
same,Biodistribution: Stomach,1 h p.i.,1.1 ± 0.8 % I.D./g
same,Excretion,1 h p.i.,87.1 ± 6.9 % I.D.
